We go through four compounds from patent publication US5696151A, “Compounds useful for the inhibition of the replication of HIV-1 and HIV-1 mutants” (priority 1995, dated 1997).

Values after ≈ are worked out from the molar mass of the structure shown. A value given as a limit tells only on which side of the number the result lay.

Data set [1] deals with 181 Tyr →Cys mutation in the RT of HIV-1 strains. The note with it: background, Balzarini I and II; cited from earlier work.
Data set [2] deals with HIV-1 strains containing the 100 Leu →Ile mutation in their RT. The note with it: background, Balzarini I and II; cited from earlier work.
Data set [3] has as its system HIV-1(IIIB). Description: Inhibition of HIV-1 induced syncytium formation in CEM cells, wild type. The following applies: Human immunodeficiency virus 1, IIIB, CCRF-CEM, 96 h, Table 2A, WT = HIV-1(IIIB), day 4, averages of 2 to 3 independent experiments, read-out: Antiviral Activity EC50, WT. In kind it is cell-based. The gist of the method: (§1)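 Mutant strains were selected in culture for resistance to NNRTIs such as TSAO-m^3T, pyridinone L-697,661 or HEPT. Antiviral effect is inhibition of syncytium formation in infected CEM cells (~100 CCID50), assessed microscopically at day 4.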

The subject of data set [4] is HIV-1/100-Ile. Description: Inhibition of HIV-1 induced syncytium formation in CEM cells, RT mutant 100-Ile. Format: cell-based. The note with it: Human immunodeficiency virus 1, CCRF-CEM, 96 h, Table 2A, day 4, averages of 2 to 3 independent experiments, read-out: Antiviral Activity EC50, 100-Ile. The gist of the method: as §1
Data set [5] relates to HIV-1/103-Asn. As to the kind of experiment: Inhibition of HIV-1 induced syncytium formation in CEM cells, RT mutant 103-Asn. Format: cell-based. The note with it: Human immunodeficiency virus 1, CCRF-CEM, 96 h, Table 2A, day 4, averages of 2 to 3 independent experiments, read-out: Antiviral Activity EC50, 103-Asn. The gist of the method:
as §1

Data set [6] deals with HIV-1/106-Ala. Description: Inhibition of HIV-1 induced syncytium formation in CEM cells, RT mutant 106-Ala. Format: cell-based. The note with it: Human immunodeficiency virus 1, CCRF-CEM, 96 h, Table 2A, day 4, averages of 2 to 3 independent experiments, read-out: Antiviral Activity EC50, 106-Ala. An outline of the steps:
as §1

For data set [7], the system named is HIV-1/Lys-138. Description: Inhibition of HIV-1 induced syncytium formation in CEM cells, RT mutant 138-Lys. Format: cell-based. The note with it: Human immunodeficiency virus 1, CCRF-CEM, 96 h, Table 2A, day 4, averages of 2 to 3 independent experiments, read-out: Antiviral Activity EC50, 138-Lys. An outline of the steps: as §1
For data set [8], the system named is HIV-1/181-Cys. As to the kind of experiment: Inhibition of HIV-1 induced syncytium formation in CEM cells, RT mutant 181-Cys. In kind it is cell-based. The following applies: Human immunodeficiency virus 1, CCRF-CEM, 96 h, Table 2A, day 4, averages of 2 to 3 independent experiments, read-out: Antiviral Activity EC50, 181-Cys. The gist of the method:
as §1

In data set [9] the test system is HIV-1/188-Leu. Description: Inhibition of HIV-1 induced syncytium formation in CEM cells, RT mutant 188-Leu. In kind it is cell-based. The following applies: Human immunodeficiency virus 1, CCRF-CEM, 96 h, Table 2A, day 4, averages of 2 to 3 independent experiments, read-out: Antiviral Activity EC50, 188-Leu. An outline of the steps: as §1
Data set [10] in a line: in vitro. The following applies: human, cem cells, CC50 (50% cytostatic concentration), Table 2A; CEM cell proliferation; averages of 2 to 3 independent experiments. Format: cell-based. The gist of the method:
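Value is the 50% cytostatic concentration, the compound concentration that inhibits CEM cell proliferation by 50%. HIV-1(IIIB) and NNRTI-resistant variants selected in culture (Lys-138, 181-Cys, 188-His, 188-Leu) were used alongside.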

Data set [11] has as its system HIV-1 RT mutant strains. As to the kind of experiment: Antiviral activity in CEM cells against the HIV-1 RT mutant strains. In kind it is cell-based. The following applies: Human immunodeficiency virus 1, CCRF-CEM, read-out: EC50 values against the HIV-1 RT mutant strains. An excerpt: (§2) CEM cells were obtained from the American Tissue Cell Culture Collection (Rockville, Md.). HIV-1(IIIB) was originally obtained from the culture supernatant of persistently HIV-1-infected H9 cells and was provided by R. C. Gallo and M. Popovic (National Cancer Institute, National Institutes of Health, Bethesda, Md.). […] 67: 5353-5359 (1993); HIV-1/Lys-138 ("Lys-138") was selected for resistance against TSAO-m^3T as described in Balzarini et al, Virology 192: 246-253 (1993) and Balzarini et al, Proc. Nat. Acad. Sci. USA 90: 6952-6956 (1993); HIV-1/181-Cys ("181-Cys") was selected for resistance against pyridinone L-697,661 as described in Balzarini et al, Virology 192: 246-253 (1993); and HIV-1/188-His ("188-His") was selected for resistance against HEPT as described in Balzarini et al, Mol. Pharmocol. 44: 694-701 (1993). 188-His was then further converted to HIV-1/188-Leu "188-Leu") upon further passage in cell culture in the absence of the HEPT.
(§3) CEM cells were suspended at ≈300,000 cells per ml of culture medium and infected with approximately 100 CCID50 (CCID50 being the 50% cell culture infective dose) of HIV-1(IIIB) or one of the HIV-1 RT mutant strains described above. Then 100 μl of the infected cell suspensions was added to 200 μl microtiter plate wells containing 100 μl of appropriate serial (5-fold) dilutions of the test compounds. […]

Data set [12] relates to HIV-1(IIIB) and the HIV-1 RT mutants. As to the kind of experiment: Antiviral activity in CEM cells against wild type and RT mutants. Format: cell-based.
Source text: as §2, §3

As to `Cc1ccnc2c1NC(=O)c1cccnc1N2C1CC1` [nevirapine], the “resistance of 181 Tyr →Cys RT mutant viruses” value in [1] was “resistant”.

As to `CC(C)=CCN1Cc2cc(Cl)cc3[nH]c(=S)n(c23)C[C@@H]1C` [TIBO R82913], the “resistance of 100 Leu →Ile RT mutant strains” value in data set [2] is reported as “resistant”.

For the compound `CC(C)=CCN1Cc2cccc3[nH]c(=S)n(c23)C[C@@H]1C` [Compound R82150], the “resistance of 100 Leu →Ile RT mutant strains” value in data set [2] is given as “resistant”.

As usually defined, the EC50 is the concentration at which the effect is half-maximal. In general, CC50 refers to the concentration that lowers cell viability or growth by half. A high value points to lower toxicity to the cells. For `CC(C)=CCOc1cc(NC(=S)c2ccoc2C)ccc1Cl` [Compound IA, N-[4-chloro-3-(3-methyl-2-butenyloxy)phenyl]-2-methyl-3-furancarbothioamide], the concentration giving a half-maximal response (EC50) in [3] came to 3 ng/mL (≈ 0.00893 µM); in data set [4], 3 ng/mL (≈ 0.00893 µM); in data set [5] it was 6 ng/mL (≈ 0.0179 µM); in data set [6] it was 5 ng/mL (≈ 0.0149 µM); in data set [7], 5 ng/mL (≈ 0.0149 µM); in data set [8] it was 11 ng/mL (≈ 0.0328 µM). Also, the 50% effective concentration (EC50) in data set [9] is 500 ng/mL (≈ 1.49 µM); in data set [11], 3 to 11 ng/mL (≈ 0.00893 to 0.0328 µM). The compound also had a cytotoxic concentration (CC50) in data set [10] above 100000 ng/mL. In data set [12], the “EC50 values against HIV-1(IIIB) and the HIV-1 RT mutants (in words)” value is “extremely low, and virtually similar EC50 values”.
